Laboratory results from patent US20200339548A1, “PYRIMIDINE DERIVATIVES AND THEIR USE FOR THE TREATMENT OF CANCER” (Adorx Therapeutics Limited, priority 2017, published 2020).
pKi: −log10 of the molar value.

Tests used:
Adenosine A2b receptor = molecular target: T1, Adenosine A2b receptor (Homo sapiens, UniProt P29275); assay: Adenosine receptor TR-FRET binding assay, A2b; conditions: Table 9, further testing; displacement of 30 nM CA200645, CHO cell membranes
T1 construct: expressed in transfected cells; host or cells: CHO cell membranes
T1 sequence (P29275 1-332): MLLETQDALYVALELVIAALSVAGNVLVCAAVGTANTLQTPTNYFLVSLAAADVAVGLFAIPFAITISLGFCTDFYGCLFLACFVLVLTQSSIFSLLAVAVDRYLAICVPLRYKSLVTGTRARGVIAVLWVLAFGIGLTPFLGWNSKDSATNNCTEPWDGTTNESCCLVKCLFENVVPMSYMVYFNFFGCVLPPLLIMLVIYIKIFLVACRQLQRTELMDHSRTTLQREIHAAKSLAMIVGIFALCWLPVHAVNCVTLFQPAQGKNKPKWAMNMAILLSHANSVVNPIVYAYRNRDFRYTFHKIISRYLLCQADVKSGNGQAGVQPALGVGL
Method: (§1) All FRET binding experiments were conducted at room temperature in white 384-well plates, in assay binding buffer containing 1× LabMed (Cisbio, France), 100 μg/mL saponin, 1% DMSO and 0.02% pluronic acid. Binding of the fluorescently labelled Adenosine receptor antagonist XAC (CA200645, FRET acceptor) to terbium-labelled A1, A2a, A2b and A3 adenosine receptors (FRET donors) was detected by time-resolved FRET due to the close proximity of the donor and acceptor in a binding event. To investigate the ability of unlabelled test compounds to bind to Adenosine A1, A2a, A2b and A3 receptors, dose response curves were constructed that determined the ability of a range of concentrations to inhibit the binding of 30 nM CA200645 to the A2b receptor and 100 nM CA200645 to the A1, A2a, and A3 receptor.
(§2) Serial dilution (1:3 dilutions) of test compounds in neat DMSO and transfer of a 400 nL sample of test compound into the assay plate was carried out using the Mosquito (TTP Labtech, UK). The compound samples were incubated for 2 hours at room temperature with a fixed concentration of CA200645 defined for each receptor (see above) and CHO cell membranes containing the human Adenosine A1 (0.5 μg/well), A2a (0.3 μg/well), A2b (1 μg/well) or A3 (1 μg/well) receptor in 40 μL of assay buffer. Total and non-specific binding of CA200645 was determined in the absence and presence of 10 μM XAC, respectively.
(§3) Following 2 hours incubation, the level of CA200645 binding was detected on a Pherastar FSX (BMG Labtech, Germany) using standard TR-FRET settings. The terbium donor was excited with three laser flashes at a wavelength of 337 nm, and donor and acceptor emission was detected at 620 nm and 665 nm wavelengths, respectively. FRET ratios were obtained by multiplying the acceptor/donor ratio value by 10,000. Specific binding was determined by subtracting the non-specific binding FRET ratio from the total binding FRET ratio. Compound IC50 curves were analysed using GraphPad Prism 7.0 (GraphPad, USA) and Ki affinity values were determined from the obtained […] values using the method of Cheng and Prusoff.

Adenosine A2a receptor = molecular target: T2, Adenosine A2a receptor (Homo sapiens, UniProt P29274); assay: Adenosine receptor TR-FRET binding assay, A2a; conditions: displacement of 100 nM CA200645, CHO cell membranes
T2 construct: expressed in transfected cells; host or cells: CHO cell membranes
Method: as §1, §2, §3

Adenosine A1 receptor = molecular target: T3, Adenosine A1 receptor (Homo sapiens, UniProt P30542); assay: Adenosine receptor TR-FRET binding assay, A1; conditions: Table 9, further testing; displacement of 100 nM CA200645, CHO cell membranes
T3 construct: expressed in transfected cells; host or cells: CHO cell membranes
T3 sequence (P30542 1-326): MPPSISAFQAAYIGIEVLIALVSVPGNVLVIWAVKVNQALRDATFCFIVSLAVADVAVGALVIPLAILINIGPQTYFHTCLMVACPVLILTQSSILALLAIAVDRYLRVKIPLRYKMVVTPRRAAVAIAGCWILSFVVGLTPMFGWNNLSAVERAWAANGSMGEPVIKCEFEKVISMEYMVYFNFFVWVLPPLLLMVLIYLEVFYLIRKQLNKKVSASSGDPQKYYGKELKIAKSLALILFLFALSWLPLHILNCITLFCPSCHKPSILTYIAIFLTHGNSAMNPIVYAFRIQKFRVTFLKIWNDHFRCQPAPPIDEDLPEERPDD
Method: as §1, §2, §3

T2 sequence (P29274 whole entry): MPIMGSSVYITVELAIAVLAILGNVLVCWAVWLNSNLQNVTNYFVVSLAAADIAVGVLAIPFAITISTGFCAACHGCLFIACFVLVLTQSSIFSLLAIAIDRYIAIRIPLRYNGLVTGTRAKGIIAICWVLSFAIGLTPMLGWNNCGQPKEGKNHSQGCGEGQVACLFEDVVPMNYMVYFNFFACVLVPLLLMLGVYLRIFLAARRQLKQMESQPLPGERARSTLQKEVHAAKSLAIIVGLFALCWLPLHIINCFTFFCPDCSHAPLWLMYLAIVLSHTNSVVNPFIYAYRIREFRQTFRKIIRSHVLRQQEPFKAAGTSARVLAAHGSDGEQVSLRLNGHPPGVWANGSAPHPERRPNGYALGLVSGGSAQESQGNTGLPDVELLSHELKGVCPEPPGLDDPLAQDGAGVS

pKi (Adenosine A2b receptor)	pKi (Adenosine A2a receptor; Table 9, further testing)	pKi (Adenosine A2a receptor; Table 8, Cheng and Prusoff)	pKi (Adenosine A1 receptor)	Structure (SMILES)
5.80	7.80			Cn1ccnc1CNC(=O)c1cnc(-c2ccco2)nc1N [Example 5.37, 4-Amino-2-(2-furyl)-N-[(1-methylimidazol-2-yl)methyl]pyrimidine-5-carboxamide]
5.09	6.95	6.95		Nc1nc(-c2cccc(F)c2)ncc1C(=O)Nc1ccccc1 [Example 4.2, 4-Amino-2-(3-fluorophenyl)-N-phenyl-pyrimidine-5-carboxamide]
5.18	8.03			CC(C)n1ccnc1CNC(=O)c1cnc(-c2ccco2)nc1N [Example 5.33, 4-Amino-2-(2-furyl)-N-[(1-isopropylimidazol-2-yl)methyl]pyrimidine-5-carboxamide]
	7.28			Nc1nc(-c2ccco2)ncc1C(=O)N[C@H]1CCc2ccc(F)cc21 [Example 5.42, 4-Amino-N-[(1S)-6-fluoroindan-1-yl]-2-(2-furyl)pyrimidine-5-carboxamide]
	9.05			CCCCNC(=O)c1c(N)nc(-c2cccc(C#N)c2)nc1OCCF [Example 24.3, 4-Amino-N-butyl-2-(3-cyanophenyl)-6-(2-fluoroethoxy)pyrimidine-5-carboxamide]
	7.77	7.77	5.57	CC(C)n1ncnc1CNC(=O)c1cnc(-c2ccco2)nc1N [Example 5.27, 4-Amino-2-(2-furyl)-N-[(2-isopropyl-1,2,4-triazol-3-yl)methyl]pyrimidine-5-carboxamide]
	6.80			Nc1nc(-c2ccco2)ncc1C(=O)NC1CCCc2cccnc21 (centres unmarked) [Example 5.49, 4-Amino-2-(2-furyl)-N-(5,6,7,8-tetrahydroquinolin-8-yl)pyrimidine-5-carboxamide]
	6.64		5.32	Nc1nc(-c2ccco2)ncc1C(=O)NCc1ccc2cnccc2c1 [Example 5.47, 4-Amino-2-(2-furyl)-N-(6-isoquinolylmethyl) pyrimidine-5-carboxamide]
	7.82	7.82		Nc1nc(-c2ccco2)ncc1C(=O)NCc1ccc(Cl)cc1Cl [Example 5.19, 4-Amino-N-[(2,4-dichlorophenyl)methyl]-2-(2-furyl)pyrimidine-5-carboxamide]
5.14	7.40			Cc1cccnc1CNC(=O)c1cnc(-c2nccs2)nc1N [Example 16.1, 4-Amino-N-[(3-methyl-2-pyridyl)methyl]-2-thiazol-2-yl-pyrimidine-5-carboxamide]
6.21	7.54	7.54		Nc1nc(-c2cccc(F)c2)ncc1C(=O)NCc1ncccc1C(F)(F)F [Example 5.6, 4-Amino-2-(3-fluorophenyl)-N-[[3-(trifluoromethyl)-2-pyridyl]methyl]pyrimidine-5-carboxamide]
	7.54			CN(C)CCNC(=O)c1c(N)nc(-c2cccc(C#N)c2)nc1OCCF [Example 24.5, 4-Amino-2-(3-cyanophenyl)-N-[2-(dimethylamino)ethyl]-6-(2-fluoroethoxy)pyrimidine-5-carboxamide]
	6.31	6.31		COc1ccc(CNC(=O)c2cnc(-c3ccco3)nc2N)cc1 [Example 5.11, 4-Amino-2-(2-furyl)-N-[(4-methoxyphenyl)methyl]pyrimidine-5-carboxamide]
	6.91			Nc1nc(-c2ccco2)ncc1C(=O)NCc1ncco1 [Example 5.45, 4-Amino-2-(2-furyl)-N-(oxazol-2-ylmethyl)pyrimidine-5-carboxamide]
5.76	6.85	6.85		Nc1nc(-c2cccc(F)c2)ncc1C(=O)NCCc1ccccc1 [Example 4.1, 4-Amino-2-(3-fluorophenyl)-N-(2-phenylethyl)pyrimidine-5-carboxamide]
	6.56	6.56		Nc1nc(-c2cccc(F)c2)ncc1C(=O)NCc1ncccn1 [Example 5.5, 4-Amino-2-(3-fluorophenyl)-N-(pyrimidin-2-ylmethyl)pyrimidine-5-carboxamide]
	8.70			CC(C)CNC(=O)c1c(N)nc(-c2cccc(C#N)c2)nc1OCCF [Example 24.2, 4-Amino-2-(3-cyanophenyl)-6-(2-fluoroethoxy)-N-isobutyl-pyrimidine-5-carboxamide]
	6.06	6.06	5.37	CN(Cc1ccccc1)C(=O)c1cnc(-c2ccco2)nc1N [Example 5.22]
	7.68			Nc1nc(-c2ccco2)ncc1C(=O)NCc1ccccc1C(F)(F)F [Example 5.55, 4-Amino-2-(2-furyl)-N-[[2-(trifluoromethyl)phenyl]methyl]pyrimidine-5-carboxamide]
	8.24			CCCNC(=O)c1c(N)nc(-c2cccc(C#N)c2)nc1OCCF [Example 24.1, 4-Amino-2-(3-cyanophenyl)-6-(2-fluoroethoxy)-N-propyl-pyrimidine-5-carboxamide]
	7.51	7.51	5.62	Cc1ccc(CNC(=O)c2cnc(-c3ccco3)nc2N)cc1 [Example 11.1, 4-Amino-2-(2-furyl)-N-(p-tolylmethyl)pyrimidine-5-carboxamide]

The next lines start with the compound.

Structure (SMILES)	pKi (Adenosine A2b receptor)	pKi (Adenosine A2a receptor; Table 9, further testing)	pKi (Adenosine A2a receptor; Table 8, Cheng and Prusoff)	pKi (Adenosine A1 receptor)
Nc1nc(-c2cccc(F)c2)ncc1C(=O)NCc1ccccc1 [Example 4, 4-Amino-N-benzyl-2-(3-fluorophenyl)pyrimidine-5-carboxamide]	5.92	7.12	7.13	
Cc1cccnc1CNC(=O)c1c(N)nc(-c2ccco2)nc1OCCC1CCCCN1 (centres unmarked) [Example 23, 4-Amino-2-(2-furyl)-N-[(3-methyl-2-pyridyl)methyl]-6-[2-(2-piperidyl)ethoxy]pyrimidine-5-carboxamide]		6.06		5.07
Cc1cccnc1CNC(=O)c1cnc(-c2ncco2)nc1N [Example 16, 4-Amino-N-[(3-methyl-2-pyridyl)methyl]-2-oxazol-2-yl-pyrimidine-5-carboxamide]		7.47	7.47	5.25
Cc1cccnc1CNC(=O)c1cnc(-n2cccn2)nc1N [Example 15, 4-Amino-N-[(3-methyl-2-pyridyl)methyl]-2-pyrazol-1-yl-pyrimidine-5-carboxamide]		6.58	6.58	
CC(C)NC(=O)c1c(N)nc(-c2cccc(C#N)c2)nc1OCCF [Example 24, 4-Amino-2-(3-cyanophenyl)-6-(2-fluoroethoxy)-N-isopropyl-pyrimidine-5-carboxamide]		8.48		
Cc1cccnc1CNC(=O)c1cnc(-c2ccccc2F)nc1N [Example 9, 4-Amino-2-(2-fluorophenyl)-N-[(3-methyl-2-pyridyl)methyl]pyrimidine-5-carboxamide]		6.51	6.51	
NC(=O)c1nnc(-c2cccc(F)c2)nc1N [Example 6, 5-Amino-3-(3-fluorophenyl)-1,2,4-triazine-6-carboxamide]		6.25	6.25	
C[C@@H](NC(=O)c1cnc(-c2cccc(F)c2)nc1N)c1ccccc1 [Example 5, 4-Amino-2-(3-fluorophenyl)-N-[(1R)-1-phenylethyl]pyrimidine-5-carboxamide]		6.48	6.48	
CC(=O)NCCNc1nc(-c2ccco2)nc(N)c1C(=O)NCc1ncccc1C [Example 22, 4-(2-Acetamidoethylamino)-6-amino-2-(2-furyl)-N-[(3-methyl-2-pyridyl)methyl]pyrimidine-5-carboxamide]		8.17		6.22
